The supplement of paper PMC10307832

Columns and labels:
Experiment in all cases: relative viability (nuclei count vs DMSO), 5 days (fraction); higher = more cells survive
[1] = compound: C=CC(=O)N1CCC[C@@H](n2nc(-c3ccc(Oc4ccccc4)cc3)c3c(N)ncnc32)C1 [Ibrutinib] + N=C(N)NC(=N)NCCc1ccccc1 [Phenformin] (partner 250 µM)
In short: (§1)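 Lung cancer cell lines were seeded in 1536-well plates and dosed by pin tool the next day, with either a single drug or a fixed anchor-drug dose combined with five library-drug doses (not always all listed) spaced in √10 steps. Five days later, one step fixed the cells and stained their nuclei (final 0.05% Triton X-100, 1% formaldehyde, 1 ug/ml Hoechst), and nuclei were counted on 4× images. Relative viability is the nuclei count in treated wells divided by the count in vehicle wells, and each value is the median of duplicate plates.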

[2] = compound: C=CC(=O)N1CCC[C@@H](n2nc(-c3ccc(Oc4ccccc4)cc3)c3c(N)ncnc32)C1 [Ibrutinib] + Nc1ncn([C@H]2C[C@H](O)[C@@H](CO)O2)c(=O)n1 [Decitabine] (partner 2 µM)
In short: as §1

[3] = compound: C=CC(=O)Nc1cc(-n2c(=O)ccc3cnc4ccc(-c5ccc(NS(C)(=O)=O)cc5)cc4c32)ccc1C [BMX-IN-1] + Cc1nc(NC(=O)N2CCC[C@H]2C(N)=O)sc1-c1ccnc(C(C)(C)C(F)(F)F)c1 [Alpelisib] (partner 2 µM)
In short: as §1

[4] = compound: C=CCc1cccc(/C=N/NC(=O)CN2CCN(Cc3ccccc3)CC2)c1O [PAC-1] + CS(=O)(=O)CCNCc1ccc(-c2ccc3ncnc(Nc4ccc(OCc5cccc(F)c5)c(Cl)c4)c3c2)o1 [Lapatinib] (partner 2 µM)
In short: as §1

Cell Line: SK-LU-1
- relative viability ([1]; first compound 0.005 µM): 0.433
- relative viability ([1]; first compound 0.01581 µM): 0.542
- relative viability ([1]; first compound 0.05 µM): 0.585
- relative viability ([1]; first compound 0.1581 µM): 0.545
- relative viability ([1]; first compound 0.5 µM): 0.485
- relative viability ([2]; first compound 0.005 µM): 0.592
- relative viability ([2]; first compound 0.01581 µM): 0.664
- relative viability ([2]; first compound 0.05 µM): 0.626
- relative viability ([2]; first compound 0.1581 µM): 0.571
- relative viability ([2]; first compound 0.5 µM): 0.617
- relative viability ([3]; first compound 0.02 µM): 1
- relative viability ([3]; first compound 0.2 µM): 1.05
- relative viability ([3]; first compound 0.6325 µM): 0.964
- relative viability ([3]; first compound 2 µM): 1.06
- relative viability ([4]; first compound 0.02 µM): 0.601
- relative viability ([4]; first compound 0.06325 µM): 0.942
- relative viability ([4]; first compound 0.2 µM): 0.67
- relative viability ([4]; first compound 2 µM): 0.867

Cell Line: PC-3 [JPC-3]
- relative viability ([1]; first compound 0.005 µM): 0.47
- relative viability ([1]; first compound 0.01581 µM): 0.452
- relative viability ([1]; first compound 0.05 µM): 0.467
- relative viability ([1]; first compound 0.1581 µM): 0.473
- relative viability ([1]; first compound 0.5 µM): 0.391
- relative viability ([2]; first compound 0.005 µM): 0.707
- relative viability ([2]; first compound 0.01581 µM): 0.762
- relative viability ([2]; first compound 0.05 µM): 0.707
- relative viability ([2]; first compound 0.1581 µM): 0.837
- relative viability ([2]; first compound 0.5 µM): 0.542
- relative viability ([3]; first compound 0.02 µM): 1.17
- relative viability ([3]; first compound 0.2 µM): 1.06
- relative viability ([3]; first compound 0.6325 µM): 1.09
- relative viability ([3]; first compound 2 µM): 1.09
- relative viability ([4]; first compound 0.02 µM): 0.416
- relative viability ([4]; first compound 0.06325 µM): 0.474
- relative viability ([4]; first compound 0.2 µM): 0.447
- relative viability ([4]; first compound 2 µM): 0.465

Cell Line: ChaGo-K-1
- relative viability ([1]; first compound 0.005 µM): 0.543
- relative viability ([1]; first compound 0.01581 µM): 0.462
- relative viability ([1]; first compound 0.05 µM): 0.433
- relative viability ([1]; first compound 0.1581 µM): 0.407
- relative viability ([1]; first compound 0.5 µM): 0.494
- relative viability ([2]; first compound 0.005 µM): 0.503
- relative viability ([2]; first compound 0.01581 µM): 0.484
- relative viability ([2]; first compound 0.05 µM): 0.544
- relative viability ([2]; first compound 0.1581 µM): 0.524
- relative viability ([2]; first compound 0.5 µM): 0.54

Cell Line: NCI-H3122
- relative viability ([1]; first compound 0.005 µM): 0.363
- relative viability ([1]; first compound 0.01581 µM): 0.359
- relative viability ([1]; first compound 0.05 µM): 0.414
- relative viability ([1]; first compound 0.1581 µM): 0.358
- relative viability ([1]; first compound 0.5 µM): 0.406
- relative viability ([2]; first compound 0.005 µM): 0.52
- relative viability ([2]; first compound 0.01581 µM): 0.381
- relative viability ([2]; first compound 0.05 µM): 0.471
- relative viability ([2]; first compound 0.1581 µM): 0.424
- relative viability ([2]; first compound 0.5 µM): 0.431
- relative viability ([3]; first compound 0.02 µM): 0.815
- relative viability ([3]; first compound 0.2 µM): 0.879
- relative viability ([3]; first compound 0.6325 µM): 0.657
- relative viability ([3]; first compound 2 µM): 0.812
- relative viability ([4]; first compound 0.02 µM): 1.01
- relative viability ([4]; first compound 0.06325 µM): 1.03
- relative viability ([4]; first compound 0.2 µM): 0.983
- relative viability ([4]; first compound 2 µM): 0.953

Cell Line: NCI-H1703
- relative viability ([3]; first compound 0.02 µM): 0.359
- relative viability ([3]; first compound 0.2 µM): 0.254
- relative viability ([3]; first compound 0.6325 µM): 0.269
- relative viability ([3]; first compound 2 µM): 0.252
- relative viability ([4]; first compound 0.02 µM): 0.901
- relative viability ([4]; first compound 0.06325 µM): 1.31
- relative viability ([4]; first compound 0.2 µM): 0.906
- relative viability ([4]; first compound 2 µM): 0.952

Cell Line: NCI-H2126
- relative viability ([1]; first compound 0.005 µM): 0.485
- relative viability ([1]; first compound 0.01581 µM): 0.474
- relative viability ([1]; first compound 0.05 µM): 0.495
- relative viability ([1]; first compound 0.1581 µM): 0.551
- relative viability ([1]; first compound 0.5 µM): 0.52
- relative viability ([2]; first compound 0.005 µM): 0.537
- relative viability ([2]; first compound 0.01581 µM): 0.565
- relative viability ([2]; first compound 0.05 µM): 0.613
- relative viability ([2]; first compound 0.1581 µM): 0.598
- relative viability ([2]; first compound 0.5 µM): 0.502
- relative viability ([3]; first compound 0.02 µM): 0.763
- relative viability ([3]; first compound 0.2 µM): 0.748
- relative viability ([3]; first compound 0.6325 µM): 0.827
- relative viability ([3]; first compound 2 µM): 0.77
- relative viability ([4]; first compound 0.02 µM): 0.745
- relative viability ([4]; first compound 0.06325 µM): 0.763
- relative viability ([4]; first compound 0.2 µM): 0.817
- relative viability ([4]; first compound 2 µM): 0.816

Cell Line: NCI-H1993
- relative viability ([1]; first compound 0.005 µM): 0.487
- relative viability ([1]; first compound 0.01581 µM): 0.575
- relative viability ([1]; first compound 0.05 µM): 0.534
- relative viability ([1]; first compound 0.1581 µM): 0.509
- relative viability ([1]; first compound 0.5 µM): 0.624
- relative viability ([2]; first compound 0.005 µM): 0.571
- relative viability ([2]; first compound 0.01581 µM): 0.637
- relative viability ([2]; first compound 0.05 µM): 0.579
- relative viability ([2]; first compound 0.1581 µM): 0.554
- relative viability ([2]; first compound 0.5 µM): 0.441
- relative viability ([3]; first compound 0.02 µM): 0.811
- relative viability ([3]; first compound 0.2 µM): 0.752
- relative viability ([3]; first compound 2 µM): 0.668
- relative viability ([4]; first compound 0.02 µM): 0.774
- relative viability ([4]; first compound 0.06325 µM): 0.835
- relative viability ([4]; first compound 0.2 µM): 0.838
- relative viability ([4]; first compound 2 µM): 0.887

Cell Line: NCI-H1793
- relative viability ([1]; first compound 0.01581 µM): 0.313
- relative viability ([1]; first compound 0.05 µM): 0.281
- relative viability ([1]; first compound 0.1581 µM): 0.318
- relative viability ([1]; first compound 0.5 µM): 0.282
- relative viability ([2]; first compound 0.005 µM): 0.478
- relative viability ([2]; first compound 0.01581 µM): 0.485
- relative viability ([2]; first compound 0.05 µM): 0.432
- relative viability ([2]; first compound 0.1581 µM): 0.502
- relative viability ([2]; first compound 0.5 µM): 0.366
- relative viability ([3]; first compound 0.02 µM): 1.14
- relative viability ([3]; first compound 0.2 µM): 0.873
- relative viability ([3]; first compound 0.6325 µM): 0.665
- relative viability ([3]; first compound 2 µM): 0.563
- relative viability ([4]; first compound 0.02 µM): 0.48
- relative viability ([4]; first compound 0.06325 µM): 0.753
- relative viability ([4]; first compound 0.2 µM): 0.62
- relative viability ([4]; first compound 2 µM): 0.652

Cell Line: NCI-H441
- relative viability ([1]; first compound 0.005 µM): 1.01
- relative viability ([1]; first compound 0.01581 µM): 0.82
- relative viability ([1]; first compound 0.05 µM): 0.912
- relative viability ([1]; first compound 0.1581 µM): 0.988
- relative viability ([1]; first compound 0.5 µM): 1.01
- relative viability ([2]; first compound 0.005 µM): 0.255
- relative viability ([2]; first compound 0.01581 µM): 0.241
- relative viability ([2]; first compound 0.05 µM): 0.231
- relative viability ([2]; first compound 0.1581 µM): 0.211
- relative viability ([2]; first compound 0.5 µM): 0.25
- relative viability ([3]; first compound 0.02 µM): 0.658
- relative viability ([3]; first compound 0.2 µM): 0.917
- relative viability ([3]; first compound 0.6325 µM): 1.04
- relative viability ([3]; first compound 2 µM): 0.641

Cell Line: H3255
- relative viability ([1]; first compound 0.005 µM): 0.364
- relative viability ([1]; first compound 0.01581 µM): 0.344
- relative viability ([1]; first compound 0.05 µM): 0.382
- relative viability ([1]; first compound 0.1581 µM): 0.375
- relative viability ([1]; first compound 0.5 µM): 0.233
- relative viability ([2]; first compound 0.005 µM): 0.575
- relative viability ([2]; first compound 0.01581 µM): 0.532
- relative viability ([2]; first compound 0.1581 µM): 0.636
- relative viability ([2]; first compound 0.5 µM): 0.261
- relative viability ([3]; first compound 0.02 µM): 0.798
- relative viability ([3]; first compound 0.2 µM): 0.657
- relative viability ([3]; first compound 0.6325 µM): 0.815
- relative viability ([3]; first compound 2 µM): 0.712
- relative viability ([4]; first compound 0.02 µM): 0.268
- relative viability ([4]; first compound 0.06325 µM): 0.256
- relative viability ([4]; first compound 0.2 µM): 0.246
- relative viability ([4]; first compound 2 µM): 0.269
